According to PubChem BioAssay AID330 (DTP/NCI, 2004):
Toxic doses and inconclusive results are not listed. The calls were made as follows: active = survival T/C of 150% or more; inactive = T/C below 125% in these data.

Test system: P388 leukemia ip, CD2F1 mice, survival T/C
Test: NCI In Vivo Anticancer Drug Screen. Data for tumor model P388 Leukemia (intraperitoneal) in CD2F1 (CDF1) mice
Conditions: endpoint: median survival time, higher = longer survival
Summary of the method: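 Mice carrying the transplanted tumor received test compound or vehicle. Survival was recorded in each group, and the value is the treated-group measurement divided by that of the vehicle-treated control group.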

[1] = dose: 50.0 mg/kg/injection, schedule: Q01DX009 (ip), vehicle: Klucel (hydroxypropylcellulose) (HPC)
[2] = dose: 100.0 mg/kg/injection, schedule: Q01DX009 (ip), vehicle: Klucel (hydroxypropylcellulose) (HPC)
[3] = dose: 200.0 mg/kg/injection, schedule: Q01DX009 (ip), vehicle: Klucel (hydroxypropylcellulose) (HPC)
[4] = dose: 100.0 mg/kg/injection, schedule: Q01DX005 (ip), vehicle: saline with Tween-80
[5] = dose: 200.0 mg/kg/injection, schedule: Q01DX005 (ip), vehicle: saline with Tween-80
[6] = dose: 6.25 mg/kg/injection, schedule: Q01DX005 (ip), vehicle: saline with Tween-80
[7] = dose: 12.5 mg/kg/injection, schedule: Q01DX005 (ip), vehicle: saline with Tween-80
[8] = dose: 25.0 mg/kg/injection, schedule: Q01DX005 (ip), vehicle: saline with Tween-80

Measured: T/C

O=C1C=C/C(=C\c2cccc(Cl)c2)O1
inactive: dose: 100.0 mg/kg/injection, schedule: Q01DX002 (ip), vehicle: Klucel (hydroxypropylcellulose) (HPC) 103 % of control | dose: 200.0 mg/kg/injection, schedule: Q01DX002 (ip), vehicle: Klucel (hydroxypropylcellulose) (HPC) 107 % of control | dose: 400.0 mg/kg/injection, schedule: Q01DX002 (ip), vehicle: Klucel (hydroxypropylcellulose) (HPC) 103 % of control

CCCCCCCCCCCCOC(=O)c1ccc(N)cc1
inactive: [1] 98 % of control | [2] 101 % of control | [3] 95 % of control

c1ccc(C2=N[C@@H](N3CCCCC3)[C@H](N3CCCCC3)N2c2ccccc2)cc1
inactive: dose: 50.0 mg/kg/injection, schedule: Q01DX005 (ip), vehicle: Klucel (hydroxypropylcellulose) (HPC) 105 % of control | dose: 100.0 mg/kg/injection, schedule: Q01DX005 (ip), vehicle: Klucel (hydroxypropylcellulose) (HPC) 100 % of control | dose: 200.0 mg/kg/injection, schedule: Q01DX005 (ip), vehicle: Klucel (hydroxypropylcellulose) (HPC) 98 % of control

COc1ccc(C(C)=O)cc1CS/C(=N/S(=O)(=O)c1ccccc1)Nc1cccc(Cl)c1Cl
inactive: [1] 101 % of control | [2] 101 % of control | [3] 98 % of control

CC(C)CC1NC(CC(C)C)N2C(CC(C)C)N12 (configuration not stated)
inactive: dose: 100.0 mg/kg/injection, schedule: Q01DX001 (ip), vehicle: Klucel (hydroxypropylcellulose) (HPC) 103 % of control | dose: 200.0 mg/kg/injection, schedule: Q01DX001 (ip), vehicle: Klucel (hydroxypropylcellulose) (HPC) 103 % of control | dose: 400.0 mg/kg/injection, schedule: Q01DX001 (ip), vehicle: Klucel (hydroxypropylcellulose) (HPC) 99 % of control

CC(C)C1OC(=O)C=C1Sc1ccccc1 (configuration not stated)
inactive: dose: 50.0 mg/kg/injection, schedule: Q01DX005 (ip), vehicle: saline with Tween-80 100 % of control | [4] 99 % of control | [5] 114 % of control

CCOC(=O)C1C2CCCCC21OC (configuration not stated)
inactive: dose: 60.0 mg/kg/injection, schedule: Q01DX005 (ip), vehicle: saline with Tween-80 106 % of control | dose: 120.0 mg/kg/injection, schedule: Q01DX005 (ip), vehicle: saline with Tween-80 107 % of control | dose: 240.0 mg/kg/injection, schedule: Q01DX005 (ip), vehicle: saline with Tween-80 110 % of control

CCOC([O-])=N/C(C)=N/[n+]1ccccc1C
inactive: dose: 50.0 mg/kg/injection, schedule: Q01DX009 (ip), vehicle: saline 107 % of control | dose: 100.0 mg/kg/injection, schedule: Q01DX009 (ip), vehicle: saline 104 % of control | dose: 200.0 mg/kg/injection, schedule: Q01DX009 (ip), vehicle: saline 107 % of control

C/C(=N/NC(=S)N1CCCCCC1)c1ncccn1
inactive: [6] 104 % of control | [7] 115 % of control

Cc1cc([N+](=O)[O-])c(C)cc1Cl
inactive: dose: 37.5 mg/kg/injection, schedule: Q04DX003 (ip), vehicle: saline sonified 118 % of control | dose: 75.0 mg/kg/injection, schedule: Q04DX003 (ip), vehicle: saline sonified 100 % of control | dose: 150.0 mg/kg/injection, schedule: Q04DX003 (ip), vehicle: saline sonified 118 % of control

O=C(O)c1cc2c(Cl)cccc2[nH]1
inactive: dose: 25.0 mg/kg/injection, schedule: Q01DX009 (ip), vehicle: saline with Tween-80 90 % of control | dose: 50.0 mg/kg/injection, schedule: Q01DX009 (ip), vehicle: saline with Tween-80 90 % of control | dose: 100.0 mg/kg/injection, schedule: Q01DX009 (ip), vehicle: saline with Tween-80 90 % of control

CCC1(CCC(=O)OC)CCC[N+]2=C1c1[nH]c3ccc(Br)cc3c1CC2 (configuration not stated)
inactive: [6] 97 % of control | [7] 100 % of control | [8] 94 % of control | dose: 50.0 mg/kg/injection, schedule: Q01DX005 (ip), vehicle: saline 86 % of control

Fc1cccc2c(C#Cc3ccccc3)c3ccccc3c(C#Cc3ccccc3)c12
inactive: dose: 1.5 mg/kg/injection, schedule: Q01DX005 (ip), vehicle: saline with Tween-80 100 % of control | dose: 3.0 mg/kg/injection, schedule: Q01DX005 (ip), vehicle: saline with Tween-80 100 % of control | dose: 6.0 mg/kg/injection, schedule: Q01DX005 (ip), vehicle: saline with Tween-80 97 % of control | [8] 92 % of control | [4] 94 % of control | [5] 87 % of control
